Assay results taken from patent publication US20220257592A1, “METHODS OF TREATING CANCER” (HOFFMANN-LA ROCHE INC., priority 2019, published 2022).

Assay: Circulating exposure at steady-state in patients
Assay type: in vivo, human

circulating M5 exposure as share of corresponding entrectinib exposure: 40%
Compound: O=C(Nc1n[nH]c2ccc(Cc3cc(F)cc(F)c3)cc12)c1ccc(N2CCNCC2)cc1NC1CCOCC1 [M5]
